Test results published in US20050244938A1, “Manzamine-producing actinomycetes” (priority 2002, published 2005).
≈ marks a conversion by molar mass, not a printed value. Like-named read-outs stand apart in the source and are kept apart here.

What was measured:
[1] = system: Mycobacterium tuberculosis (H37Rv); assay: microplate Alamar Blue assay, in vitro activity against Mycobacterium tuberculosis; assay type: cell-based
[2] = system: Plasmodium falciparum (D6 clone); assay: in vitro antimalarial activity, D6 clone; assay type: cell-based; settings: for IC50: Plasmodium falciparum
[3] = system: P. falciparum (chlorine-resistant W2 clone); assay: in vitro antimalarial activity, resistant W2 clone; assay type: cell-based, Plasmodium falciparum; settings: NA = not active; for IC50: Plasmodium falciparum, read-out: P. falciparum (chlorine-resistant W2 clone) in vitro IC 50
Nocardia sp. ATCC 21145 = assay: microbial transformation study to model human metabolism; settings: monitored by TLC, metabolite identical to ent-12,34-oxamanzamine F (2)
Experimental: (§1) In order to model the human metabolism of the manzamines and to generate additional analogs for biological evaluation, microbial transformation studies were performed for ent-8-hydroxymanzamine A (El Sayed, et al., 2001) (3). Thirty-three growing microbial cultures were screened for their potential to bioconvert 3 to new metabolites.

[4] = system: Fusarium oxysporium ATCC 7601; assay: as above; settings: monitored by TLC, metabolite identical to ent-12,34-oxamanzamine F (2)
Experimental: as §1

toxicity (no method) = settings: qualitative statement
[5] = D6 clone, in vitro, NA = not active

| Molecule | Mycobacterium tuberculosis (H37Rv) MIC [1] | Plasmodium falciparum (D6 clone) in vitro IC 50 [2, 5] | P. falciparum (chlorine-resistant W2 clone) in vitro IC 50 [3] | other results |
| --- | --- | --- | --- | --- |
| O=C1CCCN2[C@H]3[C@]45CN6CCCC/C=C\CC[C@]3(C=C(c3nccc7c3[nH]c3c(O)cccc37)[C@H]4CC6)O[C@]2(CC1)C5 (single isomer, unassigned; ent-12) [ent-12,34-Oxamanzamine F (2), ent-12,34-oxamanzamine F] | 12.5 µg/mL | 0.84 µg/mL | 1.1 µg/mL | – |
| O[C@]12C=C(c3nccc4c3[nH]c3ccccc34)C3CCN(CCCC/C=C\CC1)C[C@@]31C[C@]34CC[C@H](CCCN3[C@H]12)O4 (some centres unmarked) [6-Deoxymanzamine X, 6-deoxymanzamine X] | 1.77 µg/mL | 1.3 µg/mL | 1.4 µg/mL | – |
| C1=C(c2nccc3c2[nH]c2ccccc23)[C@@H]2CCN3CCCC/C=C\CC[C@]14O[C@@]15/C=C\CCCCN1[C@@H]4[C@]2(C3)C5 [12,34-oxamanzamine A (4), 12,34-oxamanzamine A] | – | 4.76 µg/mL | – | – |
| C[C@@H]1CC[C@H]2[C@@H](C)C(=O)O[C@@H]3O[C@@]4(C)CC[C@@H]1[C@]32OO4 [Artemisinin] | – | – | – | IC50 ([2]; D6 clone, in vitro, NA = not active, read-out: Plasmodium falciparum (D6 clone) in vitro IC 50): 0.01 µg/mL (≈ 0.0354 µM); IC50 [3]: 0.0063 µg/mL (≈ 0.0223 µM) |
| CCN(CC)CCCC(C)Nc1ccnc2cc(Cl)ccc12 (centres unmarked) [Chloroquine] | – | – | – | IC50 ([2]; D6, read-out: Plasmodium falciparum (D6 clone) in vitro IC 50): 0.0155 µg/mL (≈ 0.0485 µM); IC50 [3]: 0.17 µg/mL (≈ 0.531 µM) |
| O=CC1=C[C@@]2(O)CC/C=C\CCCCN3CC[C@@H]1[C@]1(CC4/C=C\CCCCN4[C@H]12)C3 (some centres unmarked) [Ircinal A, ircinal A] | 30.2 µg/mL | – | – | – |
| O[C@]12C=C(c3nccc4c3[nH]c3ccccc34)[C@@H]3CCN(CCCC/C=C\CC1)C[C@@]31C[C@@H]3/C=C\CCCCN3[C@H]12 [Manzamine A, manzamine A] | 1.53 µg/mL | 0.0045 µg/mL | 0.008 µg/mL | – |
| O=C1CCCN2[C@@H](CC1)C[C@]13CN4CCCC/C=C\CC[C@](O)(C=C(c5nccc6c5[nH]c5ccccc56)[C@@H]1CC4)[C@H]23 [Manzamine E, manzamine E] | 3.76 µg/mL | 3.4 µg/mL | 4.76 µg/mL | – |
| O=C1CCCN2[C@@H](CC1)C[C@]13CN4CCCC/C=C\CC[C@](O)(C=C(c5nccc6c5[nH]c5c(O)cccc56)C1CC4)[C@H]23 (some centres unmarked) [Manzamine F, manzamine F] | 2.56 µg/mL | 0.78 µg/mL | 1.7 µg/mL | – |
| (+)-8-hydroxymanzamine A | 0.91 µg/mL | 0.006 µg/mL | 0.008 µg/mL | – |
| ent-8-hydroxymanzamine A [ent-8-hydroxymanzamine A (3)] | 3.13 µg/mL | – | – | bioconversion by growing microbial culture (Nocardia sp. ATCC 21145): exhaustively metabolize; bioconversion by growing microbial culture [4]: exhaustively metabolize |
| ent-12,34-oxamanzamine E [ent-12,34-Oxamanamine E (1)] | 128 µg/mL | – | – | – |
| ircinol A | 1.93 µg/mL | 2.4 µg/mL | 3.1 µg/mL | toxicity (toxicity (no method)): minimal toxicity |
